Results taken from the supplement of paper PMC11821682.

Columns and labels:
Danio rerio embryo = assay: BMC10 any morphological effect or mortality at 120 hpf; higher = less toxic
HL-60 = assay: Cell Health Index (toxicity pseudo-probability over dose series) (index 0-1); higher = more cytotoxic / cell stress;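 also: HL-60 cells exposed 4 h at 37 °C to ten threefold dilutions spanning 5 nM to 100 µM, multiparametric flow cytometry features scored by machine-learning classification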

SMILES | BMC10 any morphological effect or mortality (Danio rerio embryo) [µM] | Cell Health Index (HL-60)
CC1(C)[C@@H](O[C@H]2O[C@H](C(=O)O)[C@@H](O)[C@H](O)[C@H]2O[C@@H]2O[C@H](C(=O)O)[C@@H](O)[C@H](O)[C@H]2O)CC[C@]2(C)[C@H]3C(=O)C=C4[C@@H]5C[C@@](C)(C(=O)O)CC[C@]5(C)CC[C@@]4(C)[C@]3(C)CC[C@@H]12.N [Glycyrrhizin] | > 100 | 0.295
C=C[C@H]1C[C@@]1(NC(=O)[C@@H]1C[C@@H]2CN1C(=O)[C@H](C(C)(C)C)NC(=O)O[C@@H]1C[C@H]1CCCCCc1nc3ccc(OC)cc3nc1O2)C(=O)NS(=O)(=O)C1CC1 [Grazoprevir] | > 100 | 0.532
COc1ccc(C2CC(=O)c3c(O)cc(O)cc3O2)cc1O (stereo not given) [Hesperetin] | > 100 | 0.258
COc1ccc([C@@H]2CC(=O)c3c(O)cc(O[C@@H]4O[C@H](CO[C@@H]5O[C@@H](C)[C@H](O)[C@@H](O)[C@H]5O)[C@@H](O)[C@H](O)[C@H]4O)cc3O2)cc1O [Hesperidin] | > 100 | 0.204
CCN(CCO)CCCC(C)Nc1ccnc2cc(Cl)ccc12.O=S(=O)(O)O (stereo not given) [Hydroxychloroquine] | > 100 | 0.211
NC(=O)NO [Hydroxyurea] | > 100 | 0.161
O=c1[nH]c(=O)n([C@H]2C[C@H](O)[C@@H](CO)O2)cc1I [Idoxuridine] | > 100 | 0.205
CC(C)Cn1cnc2c(N)nc3ccccc3c21 [Imiquimod] | > 100 | 0.269
CC(C)(C)NC(=O)[C@@H]1CN(Cc2cccnc2)CCN1C[C@@H](O)C[C@@H](Cc1ccccc1)C(=O)N[C@H]1c2ccccc2C[C@H]1O.O=S(=O)(O)O [Indinavir] | > 100 | 0.233
CC(=O)Nc1ccc(C(=O)O)cc1.CC(=O)Nc1ccc(C(=O)O)cc1.CC(=O)Nc1ccc(C(=O)O)cc1.CC(O)CN(C)C.CC(O)CN(C)C.CC(O)CN(C)C.O=c1nc[nH]c2c1ncn2[C@@H]1O[C@H](CO)[C@@H](O)[C@H]1O [Inosine] | > 100 | 0.242
CC1=CC(=O)/C(=C/c2ccc(O)c(O)c2)O1 [Inotilone] | > 100 | 0.76
CC1(C)[C@@H]2CC[C@@]1(C)[C@H](O)C2 [Isoborneol] | > 100 | 0.173
COc1ccc(/C=C/C(=O)O)cc1O [Isoferulic acid] | > 100 | 0.171
O=c1c(O[C@@H]2O[C@H](CO)[C@@H](O)[C@H](O)[C@H]2O)c(-c2ccc(O)c(O)c2)oc2cc(O)cc(O)c12 [Isoquercetin] | > 100 | 0.31
N[C@H]1CONC1=O [L-Cycloserine] | > 100 | 0.19
Nc1ccn([C@@H]2CS[C@H](CO)O2)c(=O)n1 [Lamivudine] | > 100 | 0.2
COC(=O)N[C@H](C(=O)N1CC2(CC2)C[C@H]1c1ncc(-c2ccc3c(c2)C(F)(F)c2cc(-c4ccc5nc([C@@H]6[C@H]7CC[C@H](C7)N6C(=O)[C@@H](NC(=O)OC)C(C)C)[nH]c5c4)ccc2-3)[nH]1)C(C)C [Ledipasvir] | > 100 | 0.231
COc1cccc(N2CCN(C3=Nc4c(F)cccc4[C@H](CC(=O)O)N3c3cc(C(F)(F)F)ccc3OC)CC2)c1 [Letermovir] | > 100 | 0.303
CC(=O)N[C@@H](CC(C)C)C(=O)N[C@@H](CC(C)C)C(=O)N[C@H](C=O)CCCNC(=N)N.CC(=O)N[C@@H](CC(C)C)C(=O)N[C@@H](CC(C)C)C(=O)N[C@H](C=O)CCCNC(=N)N.O=S(=O)(O)O [Leupeptin] | > 100 | 0.184
CC1(C)O[C@H]2CC(=O)OC[C@]23[C@H]2CC[C@@]4(C)[C@H](c5ccoc5)OC(=O)[C@H]5O[C@]54[C@]2(C)C(=O)C[C@@H]13 [Limonin] | > 100 | 0.145
CC(C)(C)C#Cc1cc(N(C(=O)[C@H]2CC[C@H](C)CC2)[C@H]2CC[C@@H](O)CC2)c(C(=O)O)s1 [Lomibuvir] | > 100 | 0.414
Cc1cccc(C)c1OCC(=O)N[C@@H](Cc1ccccc1)[C@@H](O)C[C@H](Cc1ccccc1)NC(=O)[C@H](C(C)C)N1CCCNC1=O [Lopinavir] | > 100 | 0.752
CCCCc1nc(Cl)c(C=O)n1Cc1ccc(-c2ccccc2-c2nnn[nH]2)cc1 [Losartan carboxaldehyde] | > 100 | 0.293
CCCCc1nc(Cl)c(C(=O)O)n1Cc1ccc(-c2ccccc2-c2nnn[nH]2)cc1 [Losartan carboxylic acid] | > 100 | 0.221
CCCCc1nc(Cl)c(CO)n1Cc1ccc(-c2ccccc2-c2nnn[n-]2)cc1.[K+] [Losartan] | > 100 | 0.209
CCCCN(CCCC)CC(O)c1cc(Cl)cc2c1-c1ccc(Cl)cc1/C2=C/c1ccc(Cl)cc1 (stereo not given) [Lumefantrine] | > 100 | 0.218
O=c1cc(-c2ccc(O)c(O)c2)oc2cc(O)cc(O)c12 [Luteolin] | > 100 | 0.54
O=c1cc(-c2ccc(O)c(O)c2)oc2cc(O[C@@H]3O[C@H](CO)[C@@H](O)[C@H](O)[C@H]3O)cc(O)c12 [Luteoloside] | > 100 | 0.345
O=C(O)Cn1nnc(-c2cc(N3CCC(Oc4cc(F)ccc4Br)CC3)no2)n1 [MK-8245] | > 100 | 0.226
O=c1c2cc(O)c(O)cc2oc2cc(O)c([C@@H]3O[C@H](CO)[C@@H](O)[C@H](O)[C@H]3O)c(O)c12 [Mangiferin] | > 100 | 0.26
